# Experimental data: US8378102B2, “Oxime and hydroxylamine substituted thiazolo[4,5-c] ring compounds and methods” (3M Innovative Properties Company, priority 2005, dated 2013)
row,melting point [°C],Structure (SMILES)
1,262 to 264,"CON=Cc1nc2c(N)nc3cc(Br)ccc3c2s1 [Example 3, 4-Amino-7-bromo[1,3]thiazolo[4,5-c]quinoline-2-carbaldehyde O-methyloxime]"
2,259 to 261,"CON=Cc1nc2c(N)nc3cc(-c4ccccc4)ccc3c2s1 [Example 138, 4-Amino-7-phenyl-thiazolo[4,5-c]quinoline-2-carbaldehyde O-methyl-oxime]"
3,254 to 256,"CON=Cc1nc2c(N)nc3cc(-c4cccc(NS(C)(=O)=O)c4)ccc3c2s1 [Example 139, N-{3-[4-Amino-2-(methoxyimino-methyl)-thiazolo[4,5-c]quinolin-7-yl]-phenyl}-methanesulfonamide]"

# More lines, now with the values behind:
row,Structure (SMILES),melting point [°C]
1,"CC(C)=NOCc1nc2c(N)nc3ccccc3c2s1 [Example 1, Acetone O-[(4-amino[1,3]thiazolo[4,5-c]quinolin-2-yl)methyl]oxime]",152 to 153
2,"CC(C)=NOCc1nc2c(N)nc3cc(Br)ccc3c2s1 [Example 2, Acetone O-(4-amino-7-bromo[1,3]thiazolo[4,5-c]quinolin-2-ylmethyl)oxime]",211 to 213
